Patent US7125990B2, “Imidazolyl derivatives as corticotropin releasing factor inhibitors” (Bristol-Myers Squibb COmpany, priority 2001, dated 2006)

Target: T1, CRF1 receptors (Homo sapiens, UniProt P34998)
T1 construct: endogenous in cells; host or cells: IMR-32 cells, transformed with 2.5 µM 5'-bromo-2'-deoxyuridine for 10 days; membrane preparation
T1 sequence (P34998 24-415): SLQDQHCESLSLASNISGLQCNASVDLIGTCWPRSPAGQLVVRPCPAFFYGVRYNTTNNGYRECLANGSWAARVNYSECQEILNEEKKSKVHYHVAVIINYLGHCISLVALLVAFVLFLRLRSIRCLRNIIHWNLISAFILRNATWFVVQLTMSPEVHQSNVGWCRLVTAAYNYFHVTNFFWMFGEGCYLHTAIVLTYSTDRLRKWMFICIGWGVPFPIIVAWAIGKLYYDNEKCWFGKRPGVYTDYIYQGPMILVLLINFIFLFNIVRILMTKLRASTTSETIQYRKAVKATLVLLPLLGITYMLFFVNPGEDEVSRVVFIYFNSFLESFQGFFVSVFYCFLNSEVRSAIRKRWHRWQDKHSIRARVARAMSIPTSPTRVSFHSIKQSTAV
Assay: CRF1 receptor radioligand binding assay ([125I]-oCRF competition, IMR-32 cell membranes)
Conditions: IMR-32 cell membranes, [125I]-oCRF 100 pM; read-out: Ki (CRF-1R)
In short: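 Buffer: Tris pH 7.2 with MgCl2, BSA, Triton X-100, aprotinin, leupeptin; reaction stopped with ice-cold wash and filtered. Nonspecific binding set with 10 μM oCRF.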

SMILES	Ki [nM]
CCCN(Cc1c(C)nc2n(-c3c(C)cc(C)cc3C)c3ccccc3n12)CC1CC1 [Example 146, Cyclopropylmethyl-[2-methyl-8-(2,4,6-trimethyl-phenyl)-8H-1,3a,8-triaza-cyclopenta[α]inden-3-ylmethyl]-propyl-amine]	< 100
CCCN(CC1CC1)C(=O)c1c(C(F)(F)F)nc2n(-c3c(C)cc(C)cc3C)c3ccccc3n12 [Example 142, 2-trifluoromethyl-8-(2,4,6-trimethylphenyl)-8H-1,3a,8-triaza-cyclopenta[a]indene-3-carboxylic acid cyclopropylmethyl-propyl-amide]	< 10000
C=CCN(CCC)Cc1c(C(F)(F)F)nc2n1CCCN2c1c(C)cc(C)cc1Cl [Example 131, Allyl-[8-(2-chloro-4,6-dimethyl-phenyl)-2-trifluoromethyl-5,6,7,8-tetrahydro-imidazo[1,2-a]pyrimidin-3-ylmethyl]-propyl-amine]	< 100
Cc1cc(C)c(N2CCCn3c2nc(C(F)(F)F)c3CN2CCCCC2)c(C)c1 [Example 62, 3-Piperidin-1-ylmethyl-2-trifluoromethyl-8-(2,4,6-trimethyl-phenyl)-5,6,7,8-tetrahydro-imidazo[1,2-a]pyrimidine]	< 1000
CCCN(CC(F)(F)F)C(=O)c1c(CC)nc2n1CCN2c1c(C)cc(C)cc1C [Example 6, 2-Ethyl-7-(2,4,6-trimethyl-phenyl)-6,7-dihydro-5H-imidazo[1,2-a]imidazole-3-carboxylic acid propyl-(2,2,2-trifluoro-ethyl)-amide]	< 100
CCCN(CCC1CC1)Cc1c(C(F)(F)F)nc2n1CCCN2c1c(C)cc(C)cc1Cl [Example 124, [8-(2-Chloro-4,6-dimethyl-phenyl)-2-trifluoromethyl-5,6,7,8-tetrahydro-imidazo[1,2-a]pyrimidin-3-ylmethyl]-(2-cyclopropyl-ethyl)-propyl-amine]	< 1000
Cc1cc(C)c(N2CCCn3c2nc(C(F)(F)F)c3CN2CCCCC2)c(Cl)c1 [Example 99, 8-(2-Chloro-4,6-dimethyl-phenyl)-3-piperidin-1-ylmethyl-2-trifluoromethyl-5,6,7,8-tetrahydro-imidazo[1,2-a]pyrimidine]	< 1000
CCCN(Cc1cccc(F)c1)Cc1c(C(F)(F)F)nc2n1CCCN2c1c(C)cc(C)cc1Cl [Example 134, [8-(2-Chloro-4,6-dimethyl-phenyl)-2-trifluoromethyl-5,6,7,8-tetrahydro-imidazo[1,2-a]pyrimidin-3-ylmethyl]-(3-fluoro-benzyl)-propyl-amine]	< 1000
CCCCN(Cc1ccccc1)Cc1c(C(F)(F)F)nc2n(-c3c(C)cc(C)cc3C)c3ccccc3n12 [Example 176, Benzyl-butyl-[2-trifluoromethyl-8-(2,4,6-trimethyl-phenyl)-8H-1,3a,8-triaza-cyclopenta[α]inden-3-ylmethyl]-amine]	< 10000
CCc1nc2n(c1C(=O)N(CC)CC1CC1)CCN2c1ccc(C(C)C)cc1Br [Example 40, 7-(2-Bromo-4-isopropyl-phenyl)-2-ethyl-6,7-dihydro-5H-imidazo[1,2-a]imidazole-3-carboxylic acid cyclopropylmethyl-ethyl-amide]	< 10000
CCN(Cc1c(C(F)(F)F)nc2n(-c3ccc(Cl)cc3Cl)c3ccccc3n12)CC1CC1 [Example 181, Cyclopropylmethyl-[8-(2,4-dichloro-phenyl)-2-trifluoromethyl-8H-1,3a,8-triaza-cyclopenta[α]inden-3-ylmethyl]-ethyl-amine]	< 10000
CCC=C(CCC)c1c(CC)nc2n1CCN2c1c(C)cc(C)cc1C [Example 48, 6-Ethyl-5-(1-propyl-but-1-enyl)-1-(2,4,6-trimethyl-phenyl)-2,3-dihydro-1H-imidazo[1,2-a]imidazole]	< 100
CC(C)c1ccc(-n2c3ccccc3n3c(CN(CC4CCC4)CC(F)(F)F)c(C(F)(F)F)nc23)c(Br)c1 [Example 194, [8-(2-Bromo-4-isopropyl-phenyl)-2-trifluoromethyl-8H-1,3a,8-triaza-cyclopenta[α]inden-3-ylmethyl]-cyclobutylmethyl-(2,2,2-trifluoro-ethyl)-amine]	< 1000
CCCCN(Cc1ccccc1)Cc1c(C(F)(F)F)nc2n1CCCN2c1c(C)cc(C)cc1Cl [Example 105, Benzyl-butyl-[8-(2-chloro-4,6-dimethyl-phenyl)-2-trifluoromethyl-5,6,7,8-tetrahydro-imidazo[1,2-a]pyrimidin-3-ylmethyl]-amine]	< 1000
CCCN(Cc1ccccc1)Cc1c(C(F)(F)F)nc2n(-c3c(C)cc(C)cc3C)c3ccccc3n12 [Example 175, Benzyl-propyl-[2-trifluoromethyl-8-(2,4,6-trimethyl-phenyl)-8H-1,3a,8-triaza-cyclopenta[α]inden-3-ylmethyl]-amine]	< 10000
CC(C)c1ccc(-n2c3ccccc3n3c(CN(CCc4ccccc4)CC(F)(F)F)c(C(F)(F)F)nc23)c(Br)c1 [Example 201, [8-(2-Bromo-4-isopropyl-phenyl)-2-trifluoromethyl-8H-1,3a,8-triaza-cyclopenta[α]inden-3-ylmethyl]-phenethyl-(2,2,2-trifluoro-ethyl)-amine]	< 10000
Cc1cc(C)c(N2CCCn3c2nc(C(F)(F)F)c3CN(C)Cc2ccccc2)c(Cl)c1 [Example 107, Benzyl-[8-(2-chloro-4,6-dimethyl-phenyl)-2-trifluoromethyl-5,6,7,8-tetrahydro-imidazo[1,2-a]pyrimidin-3-ylmethyl]-methyl-amine]	< 1000
CCCN(CCc1ccccc1)Cc1c(C(F)(F)F)nc2n1CCCN2c1c(C)cc(C)cc1Cl [Example 121, [8-(2-Chloro-4,6-dimethyl-phenyl)-2-trifluoromethyl-5,6,7,8-tetrahydro-imidazo[1,2-a]pyrimidin-3-ylmethyl]-phenethyl-propyl-amine]	< 1000
Cc1cc(C)c(N2CCCn3c2nc(C(F)(F)F)c3CN2CCCC2Cc2ccccc2)c(Cl)c1 (centres unmarked) [Example 138, 3-(2-Benzyl-pyrrolidin-1-ylmethyl)-8-(2-chloro-4,6-dimethyl-phenyl)-2-trifluoromethyl-5,6,7,8-tetrahydro-imidazo[1,2-a]pyrimidine]	< 100
CCCN(Cc1ccccc1)Cc1c(C(F)(F)F)nc2n1CCCN2c1c(C)cc(C)cc1Cl [Example 130, Benzyl-[8-(2-chloro-4,6-dimethyl-phenyl)-2-trifluoromethyl-5,6,7,8-tetrahydro-imidazo[1,2-a]pyrimidin-3-ylmethyl]-propyl-amine]	< 1000

Results, then the molecule that gave them:

Ki [nM]	SMILES
< 100	CCc1nc2n(-c3c(C)cc(C)cc3C)c3ncccc3n2c1CN(CC)CCc1ccccc1 [Example 248, Ethyl-[2-ethyl-8-(2,4,6-trimethyl-phenyl)-8H-1,3a,7,8-tetraaza-cyclopenta[α]inden-3-ylmethyl]-phenethyl-amine]
< 10000	CCN(CCC1CC1)Cc1c(C(F)(F)F)nc2n(-c3ccc(C(C)C)cc3Br)c3ccccc3n12 [Example 207, [8-(2-Bromo-4-isopropyl-phenyl)-2-trifluoromethyl-8H-1,3a,8-triaza-cyclopenta[α]inden-3-ylmethyl]-(2-cyclopropyl-ethyl)-ethyl-amine]
< 100	CCCN(CC1CC1)C(=O)c1c(C)nc2n(-c3c(C)cc(C)cc3C)c(Cl)cn12 [Example 283, 6-Chloro-2-methyl-7-(2,4,6-trimethyl-phenyl)-7H-imidazo[1,2-a]imidazole-3-carboxylic acid cyclopropylmethyl-propyl-amide]
< 1000	Cc1cc(C)c(-n2c3ncccc3n3c(CN(CCC4CC4)CC(F)(F)F)c(C(F)(F)F)nc23)c(C)c1 [Example 232, (2-Cyclopropyl-ethyl)-(2,2,2-trifluoro-ethyl)-[2-trifluoromethyl-8-(2,4,6-trimethyl-phenyl)-8H-1,3a,7,8-tetraaza-cyclopenta[α]inden-3-ylmethyl]-amine]
< 1000	C=CCN(CCC)Cc1c(C(F)(F)F)nc2n(-c3c(C)cc(C)cc3C)c3ncccc3n12 [Example 220, Allyl-propyl-[2-trifluoromethyl-8-(2,4,6-trimethyl-phenyl)-8H-1,3a,7,8-tetraaza-cyclopenta[α]inden-3-ylmethyl]-amine]
< 10000	CC(C)c1ccc(-n2c3ccccc3n3c(CN(CCC(F)(F)F)Cc4ccccc4)c(C(F)(F)F)nc23)c(Br)c1 [Example 202, Benzyl-[8-(2-bromo-4-isopropyl-phenyl)-2-trifluoromethyl-8H-1,3a,8-triaza-cyclopenta[α]inden-3-ylmethyl]-(3,3,3-trifluoro-propyl)-amine]
< 100	Cc1cc(C)c(-n2c3ncccc3n3c(CN(CC4CC4)CC4CC4)c(C(F)(F)F)nc23)c(C)c1 [Example 214, Bis-cyclopropylmethyl-[2-trifluoromethyl-8-(2,4,6-trimethyl-phenyl)-8H-1,3a,7,8-tetraaza-cyclopenta[α]inden-3-ylmethyl]-amine]
< 1000	C=CCN(CC=C)Cc1c(CC)nc2n(-c3c(C)cc(C)cc3C)c3ncccc3n12 [Example 251, Diallyl-[2-ethyl-8-(2,4,6-trimethyl-phenyl)-8H-1,3a,7,8-tetraaza-cyclopenta[α]inden-3-ylmethyl]-amine]
< 1000	Cc1cc(C)c(-n2c3ncccc3n3c(CN(CCc4ccccc4)CCC(F)(F)F)c(C(F)(F)F)nc23)c(C)c1 [Example 226, Phenethyl-[2-trifluoromethyl-8-(2,4,6-trimethyl-phenyl)-8H-1,3a,7,8-tetraaza-cyclopenta[a]inden-3-ylmethyl]-(3,3,3-trifluoro-propyl)-amine]
